Test results taken from ChEMBL document CHEMBL3621090, “Discovery of a novel Kv7 channel opener as a treatment for epilepsy” (Bioorg Med Chem Lett, 2015).
pEC50, pIC50: −log10 of the molar value.

Legend:
Rattus norvegicus [1] = assay: Anticonvulsant activity in Sprague-Dawley rat assessed as protection against maximal electroshock-induced convulsion at 3 mg/kg, sc administered 30 mins prior to application of shock via corneal electrodes relative to control; format: functional
[2] = target: T1, Potassium voltage-gated channel subfamily KQT member 4 (Homo sapiens, UniProt P56696); assay: Activation of human Kv7.4 expressed in CHOK1 cells; format: cell-based, CHO-K1
T1 sequence (P56696 whole entry): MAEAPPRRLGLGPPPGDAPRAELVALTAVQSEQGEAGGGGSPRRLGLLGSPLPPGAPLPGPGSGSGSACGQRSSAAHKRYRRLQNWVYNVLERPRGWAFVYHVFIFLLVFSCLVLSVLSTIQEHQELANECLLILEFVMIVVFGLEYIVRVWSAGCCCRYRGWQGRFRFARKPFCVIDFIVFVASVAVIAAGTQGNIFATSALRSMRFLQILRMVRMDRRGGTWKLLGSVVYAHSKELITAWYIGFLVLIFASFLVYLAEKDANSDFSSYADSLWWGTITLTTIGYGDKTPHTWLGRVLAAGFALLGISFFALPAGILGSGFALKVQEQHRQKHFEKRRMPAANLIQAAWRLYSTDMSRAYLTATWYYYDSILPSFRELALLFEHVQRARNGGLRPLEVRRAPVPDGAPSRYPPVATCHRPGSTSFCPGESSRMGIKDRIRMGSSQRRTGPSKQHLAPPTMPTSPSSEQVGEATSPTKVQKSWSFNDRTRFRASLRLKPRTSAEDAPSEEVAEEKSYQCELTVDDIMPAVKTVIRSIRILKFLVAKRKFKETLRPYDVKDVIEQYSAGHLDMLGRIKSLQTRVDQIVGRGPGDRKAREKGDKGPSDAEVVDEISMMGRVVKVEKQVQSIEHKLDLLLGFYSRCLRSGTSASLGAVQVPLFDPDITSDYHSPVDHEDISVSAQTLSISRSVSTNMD

Rattus norvegicus [3] = assay: Anticonvulsant activity in Sprague-Dawley rat assessed as protection against maximal electroshock-induced convulsion at 1 mg/kg, sc administered 30 mins prior to application of shock via corneal electrodes relative to control; format: functional
Brain [4] = assay: Fraction unbound in Sprague-Dawley rat brain at 10 mg/kg, sc administered at 30 mins by LC-MS/MS analysis; format: ADME, organism-based; settings: in vivo, 0.5 h
Rattus norvegicus [5] = assay: Anticonvulsant activity in po dosed Sprague-Dawley rat assessed as protection against maximal electroshock-induced convulsion administered 60 mins prior to application of shock via corneal electrodes; format: functional, organism-based
Rattus norvegicus [6] = assay: Anticonvulsant activity in Sprague-Dawley rat assessed as protection against maximal electroshock-induced convulsion at 10 mg/kg, po administered 60 mins prior to application of shock via corneal electrodes relative to control; format: functional
[7] = Activation of rat Kv7.3/7.5 expressed in CHOK1 cells; format: cell-based; settings: CHO-K1
MDCK = assay: Efflux ratio of permeability from basolateral to apical over apical to basolateral side in MDCK cells transfected with MDR1; format: ADME, cell-based, Canis lupus familiaris; settings: dog
[8] = Ratio of free drug level in plasma to brain in Sprague-Dawley rat at 30 mg/kg, po administration at 60 mins; format: ADME, organism-based; settings: in vivo, 1 h
Brain [9] = assay: Fraction unbound in Sprague-Dawley rat brain at 3 mg/kg, po administered at 60 mins by LC-MS/MS analysis; format: ADME, organism-based; settings: in vivo, 1 h
Plasma [10] = assay: Unbound plasma concentration in Sprague-Dawley rat at 1 mg/kg, sc administered at 30 mins by LC-MS/MS analysis; format: ADME, organism-based; settings: in vivo, 0.5 h
Plasma [11] = assay: Unbound plasma concentration in Sprague-Dawley rat at 3 mg/kg, sc administered at 30 mins by LC-MS/MS analysis; format: ADME, organism-based; settings: in vivo, 0.5 h
Brain [12] = assay: Fraction unbound in Sprague-Dawley rat brain at 30 mg/kg, sc administered at 30 mins by LC-MS/MS analysis; format: ADME, organism-based; settings: in vivo, 0.5 h
Brain [13] = assay: Fraction unbound in Sprague-Dawley rat brain at 3 mg/kg, sc administered at 30 mins by LC-MS/MS analysis; format: ADME, organism-based; settings: in vivo, 0.5 h
Rattus norvegicus [14] = assay: Anticonvulsant activity in Sprague-Dawley rat assessed as protection against maximal electroshock-induced convulsion at 10 mg/kg, sc administered 30 mins prior to application of shock via corneal electrodes relative to control; format: functional
Brain [15] = assay: Fraction unbound in Sprague-Dawley rat brain at 1 mg/kg, po administered at 60 mins by LC-MS/MS analysis; format: ADME, organism-based; settings: in vivo, 1 h
Plasma [16] = assay: Unbound plasma concentration in Sprague-Dawley rat at 30 mg/kg, po administered at 60 mins by LC-MS/MS analysis; format: ADME, organism-based; settings: in vivo, 1 h
[17] = Ratio of free drug level in plasma to brain in Sprague-Dawley rat at 10 mg/kg, po administration at 60 mins; format: ADME, organism-based; settings: in vivo, 1 h
[18] = target: Voltage-gated potassium channel, IKs; KCNQ1(Kv7.1)/KCNE1(MinK) (Homo sapiens, UniProt P51787+P15382); assay: Activation of human Kv7.1/KCNE1 expressed in CHOK1 cells assessed as increase in current amplitude relative to control; format: cell-based; settings: cho-k1
Sequence of Voltage-gated potassium channel, IKs; KCNQ1(Kv7.1)/KCNE1(MinK) (P51787 whole entry): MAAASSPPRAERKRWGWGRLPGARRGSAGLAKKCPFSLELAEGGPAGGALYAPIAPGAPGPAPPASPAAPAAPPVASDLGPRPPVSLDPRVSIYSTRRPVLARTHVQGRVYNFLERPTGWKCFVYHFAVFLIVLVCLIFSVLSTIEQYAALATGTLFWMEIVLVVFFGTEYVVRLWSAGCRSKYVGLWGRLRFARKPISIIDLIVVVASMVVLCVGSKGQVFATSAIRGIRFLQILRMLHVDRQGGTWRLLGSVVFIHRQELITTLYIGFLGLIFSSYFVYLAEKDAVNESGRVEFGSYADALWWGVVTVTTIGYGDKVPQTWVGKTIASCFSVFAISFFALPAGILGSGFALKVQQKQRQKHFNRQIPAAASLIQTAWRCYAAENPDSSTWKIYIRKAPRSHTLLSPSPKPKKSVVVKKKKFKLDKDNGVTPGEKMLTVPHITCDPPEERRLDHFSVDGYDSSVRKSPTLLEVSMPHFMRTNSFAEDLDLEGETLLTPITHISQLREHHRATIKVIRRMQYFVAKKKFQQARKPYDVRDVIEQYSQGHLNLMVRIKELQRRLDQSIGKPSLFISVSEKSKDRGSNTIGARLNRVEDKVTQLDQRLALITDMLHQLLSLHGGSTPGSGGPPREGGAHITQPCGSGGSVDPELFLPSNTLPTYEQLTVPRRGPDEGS

[19] = Toxicity in human THLE cells assessed as ATP depletion; format: cell-based
[20] = target: T2, Potassium voltage-gated channel subfamily KQT member 4 (Homo sapiens) (UniProt P56696); assay: Activation of human Kv7.4 expressed in CHOK1 cells assessed as increase in current amplitude relative to control; format: cell-based; settings: CHO-K1
T2 sequence (whole entry): T1 sequence (P56696 whole entry)

Plasma [21] = assay: Unbound plasma concentration in Sprague-Dawley rat at 10 mg/kg, sc administered at 30 mins by LC-MS/MS analysis; format: ADME, organism-based; settings: in vivo, 0.5 h

## COc1nc(N2CCC(OC)CC2)nc(OC)c1NC(=O)CC(C)(C)C
Rattus norvegicus [1]
  Activity: 100%
[2]
  pEC50: 6.20
Rattus norvegicus [3]
  Activity: 43%
Brain [4]
  Drug uptake(free): 125 nM
Rattus norvegicus [5]
  Activity: Dose-dependent effect
Rattus norvegicus [6]
  Activity: 100%
[7]
  pEC50: 5.88
MDCK
  Ratio: 1.25
[8]
  Ratio: 0.48
Brain [9]
  Drug uptake(free): 43 nM
Plasma [10]
  Cp(f): 58 nM
Plasma [11]
  Cp(f): 151 nM
Brain [12]
  Drug uptake(free): 167 nM
Brain [13]
  Drug uptake(free): 90 nM
Rattus norvegicus [14]
  Activity: 100%
Brain [15]
  Drug uptake(free): 6 nM
Plasma [16]
  Cp(f): 572 nM
[17]
  Ratio: 0.37
[18]
  Activity: 84%
[19]
  pIC50: < 3.52
[20]
  Activity: 163%
Plasma [21]
  Cp(f): 211 nM
